# Laboratory results as given in publication PMC8198750, “Synthesis of Novel Halogenated Heterocycles Based on o-Phenylenediamine and Their Interactions with the Catalytic Subunit of Protein Kinase CK2” (Molecules, 2021).
# Tests used:
# [1] = RP-HPLC chromatographic hydrophobicity index; assay type: physicochemical; details: C18, 2:1 methanol:20 mM aqueous ammonium formate pH 8; τ = (Tret − T0)/T0
# Protocol: RP-HPLC method, a fast and efficient alternative for standard logD determination in octan-1-ol/water system, was used to assess the hydrophobicity of all synthesized compounds. This method has been successfully used in our laboratory for halogenated benzotriazole derivatives, including the evaluation of the effect of hydrophobicity on their binding to the catalytic subunit of protein kinase CK2 [24, 43].
# Chromatographic hydrophobicity index (log(τ)) was determined with the reverse phase HPLC (RP-HPLC). Column: Nova-pak® C18 4 μm, 4.6 × 250 mm. Eluent: 2:1 methanol: 20 mM aqueous ammonium formate (pH = 8) (v/v). Flow: 0.7 mL/min. Detector wavelength: 280 nm. The individual retention times (Tret) were converted to a hydrophobicity scale according to the formula τ = (Tret − T0)/T0. where the retention time of unretained solvent (T0) was estimated to 300 s.
# CK2 = details: read-out: IC50 against CK2 / inhibitory activity; cited from earlier work
# [2] = system: epidermoid carcinoma A-431; experiment: MTT cell viability assay, A-431; assay type: cell-based; details: Homo sapiens, 72 h
# Description: (§1) The following human cell lines were used in this study: (i) epidermoid carcinoma A-431 (ATCC® CRL-1555), (ii) colorectal carcinoma HCT116 (ATCC® CCL-247), (iii) colorectal carcinoma HCT116p53^−/−, and (iv) normal fibroblasts BJ (ATCC® CRL-2522). The HCT116p53^−/− cell line was a kind gift from professor Bert Vogelstein (John Hopkin’s University, Baltimore, MD, USA). The remaining cell lines were purchased from ATCC (Manassas, VA, USA) or Sigma Aldrich by Merck (Darmstadt, Germany).
# (§2) Cells were cultured in Dulbecco’s modified Eagle’s or Roswell Park Memorial Institute (RPMI)-1640 medium supplemented with 10% or 15% fetal bovine serum (Gibco by Thermo Fisher Scientific, Waltham, MA, USA) under standard culture conditions (37 °C, 5% CO2) in a humidified incubator with atmospheric oxygen.
# (§3) The viability of cells was assayed by measuring the conversion of MTT (3-(4,5-dimethylthiazol-2-yl)-2,5-diphenyltetrazolium bromide) to the formazan (the rate of this reaction is proportional to the number of surviving cells). Cells were seeded in a 96-well plate at a density of 1500–2500 cells per well, 24 h before treatment. Treatment with tested compounds and cisplatin (0.25–160 µM) was performed for 72 h. MTT stock solution (Sigma-Aldrich) was added at the final concentration 0.5 mg/mL. After 2 h of incubation at 37 °C, water-insoluble formazan was dissolved in a lysis buffer containing 20% SDS, 50% DMF, 2.5% hydrochloric acid, and 2.5% acetic acid. Optical densities were measured at 570 nm using a scanning multi-well spectrophotometer ([…] Detection Platform; Beckman Coulter, Brea, CA, USA).
# hCK2α [3] = biological target: T1, hCK2α (Homo sapiens, UniProt P68400); experiment: Inhibitory activity against human CK2α (ADP-Glo kinase assay); assay type: biochemical; details: inhibitor 1 nM–1 mM, triplicate
# T1 construct: made in house
# Protocol: The inhibitory effect of 8 selected compounds was monitored based on the luminescence measured with the SpectraMax iD3 Multi-Mode Microplate Reader (Molecular Devices, San Jose, CA, USA), using the previously described method with the aid of ADP-Glo kinase assay (Promega, Walldorf, Germany). Inhibitor concentration varied in the range of 1 nM–1 mM (see Supplementary Figure S38). Each experiment was repeated in triplicate and IC50 values were further estimated globally using the sigmoidal dose-response equation implemented in Origin 9.4 package (www.originlab.com, upgraded 20.07.27).
# [4] = system: colorectal carcinoma HCT116; experiment: MTT cell viability assay, HCT116; assay type: cell-based; details: Homo sapiens, HCT-116, 72 h, read-out: IC50 HTC116
# Description: as §1, §2, §3
# [5] = system: colorectal carcinoma HCT116p53−/−; experiment: MTT cell viability assay, HCT116p53−/−; assay type: cell-based; details: Homo sapiens, 72 h
# Description: as §1, §2, §3
# normal fibroblasts BJ = experiment: MTT cell viability assay, BJ; assay type: cell-based, human; details: Homo sapiens, Fibroblast; MTT, 72 h
# Description: as §1, §2, §3
# [6] = system: phytohemagglutinin-stimulated normal human lymphocytes; set-up: method as in PMID 12660022; details: cited from earlier work
# hCK2α [7] = biological target: T1, hCK2α; experiment: nanoDSF thermal shift assay (low-volume differential scanning fluorimetry); assay type: binding; details: 10-fold excess of ligand (1:10 protein–ligand), 2.5 μM protein, relative to apo hCK2α, 2% DMSO, pH 8; read-out: ΔTm
# Protocol: Binding affinities of the newly synthesized compounds towards hCK2α were assessed with the low-volume differential scanning fluorimetry (nanoDSF). The shift of the temperature of thermal denaturation in the presence of 10-fold excess of a particular ligand relative to the apo form of hCK2α (ΔTm) can be used as a semi-qualitative measure of the binding affinity or inhibitory activity.
# hCK2α was expressed and purified according to the method described previously. Thermal stability of 1:10 protein–ligand complexes was monitored on Prometheus (Nanotemper Technologies, München, Germany) using PR-C002 Prometheus NT.48 Standard Capillaries using temperature ramp of 20 to 80 °C with 1 °C/min heating rate. Temperature-induced variation in ratio fluorescence intensity at 330 and 350 nm was globally analyzed using the procedure described before. All experiments were performed in 25 mM Tris–HCl (pH 8, 0.5 M NaCl) with 2% (v/v) DMSO. Protein was kept in constant 2.5 μM concentration.
# [8] = system: PC-3 (prostate carcinoma); set-up: method as in PMID 12660022; details: cited from earlier work
# MCF-7 (breast carcinoma) = system: MCF-7 (breast carcinoma); set-up: method as in PMID 12660022; details: cited from earlier work
# [9] = system: A-431, HCT116, HCT116p53−/−, BJ; experiment: MTT cell viability, reference cell lines as a whole; assay type: cell-based; details: Homo sapiens; viability tests, cell line not specified
# Description: as §1, §2
# as §3, with “MTT stock solution (Sigma-Aldrich) was added at the final concentration 0.5 mg/mL. After 2 h of incubation at 37 °C, water-insoluble formazan was dissolved in a lysis buffer containing 20% SDS, 50% DMF, 2.5% hydrochloric acid, and 2.5% acetic acid.” left out
# T1 sequence (P68400 whole entry): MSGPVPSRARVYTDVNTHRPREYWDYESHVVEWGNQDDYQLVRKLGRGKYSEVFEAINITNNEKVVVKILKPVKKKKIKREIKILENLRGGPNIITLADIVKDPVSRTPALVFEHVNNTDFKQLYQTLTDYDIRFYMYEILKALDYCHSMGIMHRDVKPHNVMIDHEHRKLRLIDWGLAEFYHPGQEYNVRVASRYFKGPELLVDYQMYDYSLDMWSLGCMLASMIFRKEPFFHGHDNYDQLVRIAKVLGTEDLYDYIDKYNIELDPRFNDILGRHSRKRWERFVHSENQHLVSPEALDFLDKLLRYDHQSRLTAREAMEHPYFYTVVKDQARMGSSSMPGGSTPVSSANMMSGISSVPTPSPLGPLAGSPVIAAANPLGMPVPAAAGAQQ
Structure (SMILES),log(τ) HPLC-derived hydrophobicity index [1],IC50 (CK2) [µM],IC50 [2] [µM],IC50 (hCK2α [3]) [µM],IC50 [4] [µM],IC50 [5] [µM],IC50 (normal fibroblasts BJ) [µM],IC80 [6] [µM],ΔTm at 25 µM (hCK2α [7]) [°C],IC80 [8] [µM],IC80 (MCF-7 (breast carcinoma)) [µM],IC50 [9] [µM]
"FC(F)(F)c1nc2cc(Br)c(Br)cc2[nH]1 [Compound 3d, 5,6-dibromo-2-trifluoromethylo-1H-benzimidazole]",0.310,28,13 ± 2,15 ± 3,10 ± 2,12 ± 2,55 ± 6,8.7,2.4 ± 0.1,< 3,< 3,–
Oc1nc2cc(I)c(I)cc2nc1O [Compound 7e],−0.117,–,94 ± 14,2 ± 1,41 ± 4,70 ± 10,128 ± 13,–,4.1 ± 0.1,–,–,~100
